Data from the NIST ThermoML archive (doi:10.1016/j.tca.2018.10.018).
± gives the expanded uncertainty stated by the source.

Tests used:
[1] = Liquid; for viscosity: Capillary tube (Ostwald / Ubbelohde) method; for mass density: Siemens Coriolis flowmeter
[2] = xn = mol fraction of the nth substance listed; conditions: Liquid, x2 = 0; for viscosity: Capillary tube (Ostwald / Ubbelohde) method; for mass density: Siemens Coriolis flowmeter

CCCCCCC [heptane]
[1]
Conditions | mass density, 298.15 K [kg/m3] | mass density, 308.15 K [kg/m3] | mass density, 318.15 K [kg/m3] | viscosity, 298.15 K [mPa·s] | viscosity, 308.15 K [mPa·s] | viscosity, 318.15 K [mPa·s]
100 kPa | 680 ± 2 | 670 ± 2 | 662 ± 2 | 0.404 ± 0.013 | 0.367 ± 0.011 | 0.33 ± 0.01
3000 kPa | 683 ± 2 | 674 ± 2 | 666 ± 2 | 0.415 ± 0.013 | 0.371 ± 0.012 | 0.339 ± 0.011
6000 kPa | 686 ± 2 | 677 ± 2 | 669 ± 2 | 0.42 ± 0.013 | 0.385 ± 0.012 | 0.347 ± 0.011
9000 kPa | 689 ± 2 | 680 ± 2 | 672 ± 2 | 0.432 ± 0.013 | 0.396 ± 0.012 | 0.359 ± 0.011
12000 kPa | 691 ± 2 | 683 ± 2 | 675 ± 2 | 0.446 ± 0.014 | 0.404 ± 0.013 | 0.369 ± 0.012
15000 kPa | 694 ± 2 | 685 ± 2 | 678 ± 2 | 0.454 ± 0.014 | 0.411 ± 0.013 | 0.374 ± 0.012

CCCCCCC [heptane] + CCCCCCCCCC(=O)OC
[2]
Conditions | mass density, 298.15 K [kg/m3] | mass density, 308.15 K [kg/m3] | mass density, 318.15 K [kg/m3] | viscosity, 298.15 K [mPa·s] | viscosity, 308.15 K [mPa·s] | viscosity, 318.15 K [mPa·s]
100 kPa | 680 ± 2 | 670 ± 2 | 662 ± 2 | 0.404 ± 0.013 | 0.367 ± 0.011 | 0.33 ± 0.01
3000 kPa | 683 ± 2 | 674 ± 2 | 666 ± 2 | 0.415 ± 0.013 | 0.371 ± 0.012 | 0.339 ± 0.011
6000 kPa | 686 ± 2 | 677 ± 2 | 669 ± 2 | 0.42 ± 0.013 | 0.385 ± 0.012 | 0.347 ± 0.011
9000 kPa | 689 ± 2 | 680 ± 2 | 672 ± 2 | 0.432 ± 0.013 | 0.396 ± 0.012 | 0.359 ± 0.011
12000 kPa | 691 ± 2 | 683 ± 2 | 675 ± 2 | 0.446 ± 0.014 | 0.404 ± 0.013 | 0.369 ± 0.012
15000 kPa | 694 ± 2 | 685 ± 2 | 678 ± 2 | 0.454 ± 0.014 | 0.411 ± 0.013 | 0.374 ± 0.012

CCCCCCCCCC(=O)OC [methyl decanoate]
[1]
Conditions | mass density, 298.15 K [kg/m3] | mass density, 308.15 K [kg/m3] | mass density, 318.15 K [kg/m3] | viscosity, 298.15 K [mPa·s] | viscosity, 308.15 K [mPa·s] | viscosity, 318.15 K [mPa·s]
100 kPa | 868 ± 2 | 860 ± 2 | 853 ± 2 | 1.934 ± 0.06 | 1.628 ± 0.05 | 1.38 ± 0.043
3000 kPa | 870 ± 2 | – | 854 ± 2 | 1.992 ± 0.061 | – | 1.417 ± 0.044
3010 kPa | – | 862 ± 2 | – | – | 1.675 ± 0.052 | –
6000 kPa | 872 ± 2 | 864 ± 2 | 856 ± 2 | 2.058 ± 0.064 | 1.727 ± 0.053 | 1.462 ± 0.045
9000 kPa | 874 ± 2 | 866 ± 2 | 859 ± 2 | 2.123 ± 0.066 | 1.779 ± 0.055 | 1.491 ± 0.046
12000 kPa | 877 ± 2 | 869 ± 2 | 861 ± 2 | 2.209 ± 0.068 | 1.835 ± 0.057 | 1.534 ± 0.047
15000 kPa | 878 ± 2 | 871 ± 2 | 863 ± 2 | 2.272 ± 0.07 | 1.888 ± 0.058 | 1.578 ± 0.049
